22 molecules from patent US20250388568A1, “NLRP3 INHIBITORS” (Kodiak Sciences Inc., priority 2022, published 2025) can be followed below.

By IC50 is commonly meant the concentration needed to halve the response being measured.

For the assay, the system named is IL-1β release in U937 cells after NLRP3 activation. Briefly: IC50 determination of IL-1β release inhibition in U937 cells. Particulars: Homo sapiens, U-937; PMA-differentiated U937 cells, LPS priming 5 h, nigericin; average of at least three experiments; read-out: IL-1β IC50 (nM) U937 cells. In kind it is cell-based. On the procedure: Example 79: IC50 Determination of IL-1β Release Inhibition in U937 Cells The compounds of the present disclosure were tested for their ability to inhibit the IL-1β release in the U937 cells after NLRP3 activation. U937 cells (U-97 CRL 1593.2) were thawed following ATCC's initial culture procedure. […] The growth medium was composed of RPMI1640 medium (Quality Biological 112-040-101), 10% serum (Corning 35-076-CV), Pen/Strep (GIBCO 15140-122), 10 mM Hepes (Quality Biological 118-089-721), 2 mM Glutamax (GIBCO 35050-061), and 100 μg/mL normocin (Invivogen ant-nr)-Differentiating media was prepared by adding Phorbol 12-myristate 13-acetate (PMA) (AdipoGen AG-CN2-0010-M005) to growth medium. A cell suspension was prepared with differentiating media at 500k cells/ml. With an electronic pipet, 200 ul of cell suspension was added to each well (96w white plate Corning 3903) leaving columns 1 and 2 empty. Plates were left in the biosafety cabinet for 15 min and then placed in incubator for 90 hours. Priming media was prepared with assay medium consisting of RPMI 1640 medium, 10 mM Hepes, 2 mM Glutamax and Pen/Strep plus 1 μg/mL LPS (Invivogen tlrl-3pelps). Differentiating media was manually removed and 80 ul of priming media was added to each well with an electronic pipet. The plates were placed in the incubator for 5 hours. […] DMSO). An hour prior to the end of LPS incubation, a separate 96 deep well plate, Plate B, was prepared with 400 μL of assay media per well, then […] of the stock DMSO solution from Plate A was added to each corresponding well. Plate B was covered to avoid media evaporation. In a 50 mL tube, a solution of nigericin in assay media at 50 uM/mL concentration was prepared. To a new 96 deep well plate, Plate C, 200 μL of this nigericin containing media was dispensed to each well and 1 μL of the test compounds from Plate B to each corresponding well was added. Plate C was covered to avoid media evaporation. After 5 hours of priming, all the media from the LPS treated U937 cells was removed manually. To this plate of primed cells, 80 μL/well test compounds from Plate B (assay media+compound) was added in duplicate columns (5 compounds tested per plate). The plate was placed in an incubator for 30 min. […] The plate was placed back in the incubator for 1 hour. At the end of 1 hour, the supernatant from this test plate was transferred to a new 96 well V bottom polypropylene plate which was frozen immediately at -80° C. The plate was transferred to -20° C. the next day and awaited further determination of cytokine IL-Ip level. The release of IL-1β into the cell media was determined by MSD® Multi-Spot Assay System (V-Plex, IL-1B kit, […]-4). Following the manufacture's protocol and using the Alternate Protocol 3, Dilute-In-Plate protocol specifically, the level of IL-IP in the above collected supernatant plate was measured as electrochemiluminescent signals. Using MSD DISCOVERY WORKBENCH® analysis software, the signals were converted to the concentration of IL-1β in each well. The IC50 values of the compounds were calculated using the Graph Pad Prism software based on the IL-1β concentration determined. The detection range of IL-1β using MSD kit was approximately […] (based on various lots of standards purchased from MSD).
For `N=S(=O)(NC(=O)Nc1c2c(cc3c1CCC3)CCC2)c1cc(CN)co1` (stereo not shown) [Example 22, 4-(aminomethyl)-N-((1,2,3,5,6,7-hexahydro-s-indacen-4-yl)carbamoyl)furan-2-sulfonimidamide], the IC50 was in the range of 5 to 50 nM.

As for `CN(C(=O)c1coc(S(=N)(=O)NC(=O)Nc2c3c(cc4c2CCC4)CCC3)c1)[C@H]1C[C@H](N)C1` (stereo partly shown) [Example 16], the IC50 was above 500 nM.

`CN(Cc1cc(S(=O)(=O)NC(=O)Nc2c3c(c(F)c4c2CCC4)CCC3)nn1C)CC1(CO)CCC1` [Example 65, N-((8-fluoro-1,2,3,5,6,7-hexahydro-s-indacen-4-yl)carbamoyl)-5-((((1-(hydroxymethyl)cyclobutyl)methyl)(methyl)amino)methyl)-1-methyl-1H-pyrazole-3-sulfonamide]: the IC50 was in the range of 5 to 50 nM.

Consider `Cc1oc(S(=O)(=O)NC(=O)Nc2c3c(c(F)c4c2CCC4)CCC3)cc1CN1C[C@@H](F)[C@@H](O)C1` [Example 40, N-((8-fluoro-1,2,3,5,6,7-hexahydro-s-indacen-4-yl)carbamoyl)-4-(((3R,4S)-3-fluoro-4-hydroxypyrrolidin-1-yl)methyl)-5-methylfuran-2-sulfonamide], for which the IC50 was in the range of 5 to 50 nM.

As for `CC(C)n1nc(S(=O)(=O)NC(=O)Nc2c3c(c(Cl)c4c2CCC4)CCC3)cc1CN(C)CC1(O)CCC1` [Example 69, N-((8-chloro-1,2,3,5,6,7-hexahydro-s-indacen-4-yl)carbamoyl)-5-((((1-hydroxycyclobutyl)methyl)(methyl)amino)methyl)-1-isopropyl-1H-pyrazole-3-sulfonamide], the IC50 lay in the range of 5 to 50 nM.

Take `CC(C)n1nc(S(=O)(=O)NC(=O)Nc2c3c(c(F)c4c2CCC4)CCC3)cc1CN(C)CC1(O)CCC1` [Example 66, N-((8-fluoro-1,2,3,5,6,7-hexahydro-s-indacen-4-yl)carbamoyl)-5-((((1-hydroxycyclobutyl)methyl)(methyl)amino)methyl)-1-isopropyl-1H-pyrazole-3-sulfonamide]: the IC50 is below 5 nM.

Regarding `Cc1oc(S(=O)(=O)NC(=O)Nc2c3c(cc4c2CCC4)CCC3)cc1CN(C)CC1(CO)CCC1` [Example 34, N-((1,2,3,5,6,7-hexahydro-s-indacen-4-yl)carbamoyl)-4-((((1-(hydroxymethyl)cyclobutyl)methyl)(methyl)amino)methyl)-5-methylfuran-2-sulfonamide], the half-maximal inhibitory concentration (IC50) is 5 to 50 nM.

For the molecule `CC(C)(O)c1cc(S(=O)(=O)NC(=O)Nc2c3c(cc4c2CCC4)CCC3)oc1CN1CCNCC1` [Example 70, N-((1,2,3,5,6,7-hexahydro-s-indacen-4-yl)carbamoyl)-4-(2-hydroxypropan-2-yl)-5-(piperazin-1-ylmethyl)furan-2-sulfonamide], the IC50 fell in the range of 5 to 50 nM.

Consider `N=S(=O)(NC(=O)Nc1c2c(cc3c1CCC3)CCC2)c1cc(CO[C@H]2C[C@H](N)C2)co1` (stereo partly shown) [Example 18, 4-(((1r,3r)-3-aminocyclobutoxy)methyl)-N-((1,2,3,5,6,7-hexahydro-s-indacen-4-yl)carbamoyl)furan-2-sulfonimidamide], for which the IC50 fell in the range of 5 to 50 nM.

Turning to `N=S(=O)(NC(=O)Nc1c2c(cc3c1CCC3)CCC2)c1cc(C(=O)N2CC3(CC(O)C3)C2)co1` (stereo not shown) [Example 3, N-((1,2,3,5,6,7-hexahydro-s-indacen-4-yl)carbamoyl)-4-(6-hydroxy-2-azaspiro[3.3]heptane-2-carbonyl)furan-2-sulfonimidamide], the IC50 is 50 to 500 nM.

Consider `Cc1cc(S(=O)(=O)NC(=O)Nc2c3c(c(F)c4c2CCC4)CCC3)oc1CN1C[C@H](O)[C@@H](F)C1` [Example 56, N-((8-fluoro-1,2,3,5,6,7-hexahydro-s-indacen-4-yl)carbamoyl)-5-(((3S,4S)-3-fluoro-4-hydroxypyrrolidin-1-yl)methyl)-4-methylfuran-2-sulfonamide], for which the IC50 fell in the range of 5 to 50 nM.

With `O=C(Nc1c2c(cc3c1CCC3)CCC2)NS(=O)(=O)c1cc(CN2CC(O)C2)co1` [Example 32, N-((1,2,3,5,6,7-hexahydro-s-indacen-4-yl)carbamoyl)-4-((3-hydroxyazetidin-1-yl)methyl)furan-2-sulfonamide], the IC50 lay in the range of 50 to 500 nM.

Consider `CN(Cc1cc(S(=O)(=O)NC(=O)Nc2c3c(c(F)c4c2CCC4)CCC3)nn1C)CC1(CO)CCOCC1` [Example 64, N-((8-fluoro-1,2,3,5,6,7-hexahydro-S-indacen-4-yl)carbamoyl)-5-((((4-(hydroxymethyl)tetrahydro-2H-pyran-4-yl)methyl)(methyl)amino)methyl)-1-methyl-1H-pyrazole-3-sulfonamide], for which the IC50 lay within 50 to 500 nM.

As for `Cc1cc(S(=O)(=O)NC(=O)Nc2c3c(c(F)c4c2CCC4)CCC3)oc1CN1CC[C@@H](O)C1` [Example 52, (R)-N-((8-fluoro-1,2,3,5,6,7-hexahydro-s-indacen-4-yl)carbamoyl)-5-((3-hydroxypyrrolidin-1-yl)methyl)-4-methylfuran-2-sulfonamide], the IC50 lay in the range of 5 to 50 nM.

Turning to `Cc1oc(S(=O)(=O)NC(=O)Nc2c3c(c(Cl)c4c2CCC4)CCC3)cc1CN1CC[C@H](O)C1` [Example 49, (S)—N-((8-chloro-1,2,3,5,6,7-hexahydro-s-indacen-4-yl)carbamoyl)-4-((3-hydroxypyrrolidin-1-yl)methyl)-5-methylfuran-2-sulfonamide], the IC50 lay within 5 to 50 nM.

On to `Cc1oc(S(=O)(=O)NC(=O)Nc2c3c(c(F)c4c2CCC4)CCC3)cc1CN(C)CC1(CO)CCC1` [Example 47, N-((8-fluoro-1,2,3,5,6,7-hexahydro-s-indacen-4-yl)carbamoyl)-4-((((1-(hydroxymethyl)cyclobutyl)methyl)(methyl)amino)methyl)-5-methylfuran-2-sulfonamide], for which the IC50 lay in the range of 5 to 50 nM.

Consider `N=S(=O)(NC(=O)Nc1c2c(cc3c1CCC3)CCC2)c1cc(CN2CC3(CC(O)C3)C2)co1` (stereo not shown) [Example 2, N-((1,2,3,5,6,7-hexahydro-s-indacen-4-yl)carbamoyl)-4-((6-hydroxy-2-azaspiro[3.3]heptan-2-yl)methyl)furan-2-sulfonimidamide], for which the 50% inhibitory concentration (IC50) lay in the range of 50 to 500 nM.

On to `Cc1oc(S(=O)(=O)NC(=O)Nc2c3c(c(F)c4c2CCC4)CCC3)cc1CN(C)CC1(CO)CCOCC1` [Example 46, N-((8-fluoro-1,2,3,5,6,7-hexahydro-s-indacen-4-yl)carbamoyl)-4-((((4-(hydroxymethyl)tetrahydro-2H-pyran-4-yl)methyl)(methyl)amino)methyl)-5-methylfuran-2-sulfonamide], for which the half-maximal inhibitory concentration (IC50) fell in the range of 5 to 50 nM.

In the case of `Cc1cc(S(=O)(=O)NC(=O)Nc2c3c(c(F)c4c2CCC4)CCC3)oc1CN1C[C@@H](O)[C@@H](F)C1` [Example 53, N-((8-fluoro-1,2,3,5,6,7-hexahydro-s-indacen-4-yl)carbamoyl)-5-(((38,4R)-3-fluoro-4-hydroxypyrrolidin-1-yl)methyl)-4-methylfuran-2-sulfonamide], the IC50 was 5 to 50 nM.

Turning to `CN(C(=O)c1coc(S(=N)(=O)NC(=O)Nc2c3c(cc4c2CCC4)CCC3)c1)C1CNC1` (stereo not shown) [Example 17, N-(azetidin-3-yl)-5-(N-((1,2,3,5,6,7-hexahydro-s-indacen-4-yl)carbamoyl)sulfamidimidoyl)-N-methylfuran-3-carboxamide], the IC50 fell in the range of 50 to 500 nM.

`CC(C)n1nc(S(=N)(=O)NC(=O)Nc2c3c(cc4c2CCC4)CCC3)cc1CN` (stereo not shown) [Example 77, 5-(aminomethyl)-N-((1,2,3,5,6,7-hexahydro-s-indacen-4-yl)carbamoyl)-1-isopropyl-1H-pyrazole-3-sulfonimidamide]: the IC50 was 50 to 500 nM.

Turning to `CC(C)n1nc(S(=O)(=O)NC(=O)Nc2c3c(c(F)c4c2CCC4)CCC3)cc1CN1CC[C@H](O)C1` [Example 67, (S)—N-((8-fluoro-1,2,3,5,6,7-hexahydro-s-indacen-4-yl)carbamoyl)-5-((3-hydroxypyrrolidin-1-yl)methyl)-1-isopropyl-1H-pyrazole-3-sulfonamide], the IC50 lay in the range of 5 to 50 nM.
